{
  "source": "paper PMC9588780",
  "about": "“Purification and structural characterization of the Na^+-translocating ferredoxin: NAD^+ reductase (Rnf) complex of Clostridium tetanomorphum” (Nature Communications, 2022)",
  "molecules": {"B1": {"name": "RnfB subunit of the Na+-translocating ferredoxin:NAD+ reductase (Rnf) complex of Clostridium tetanomorphum (natural protein, UniProt A0A923E755 1-274, looked up)", "chain": "MEGLLFPVLSLGGLGVVFGLLLGYASKKFAVEVDERVPMVRAALPGANCGGCGFAGCDAYADAVVNAGAKPNGCPVGGAACAAKIAEIMGVVVDSSEPKKAYVKCQGTCDKAKEKYEYYGAMTCVDAANIPGAGSKTCGFGCLGLGSCVQVCAFDAIHVENGIAVVDEEACTGCGACVSICPKSVIELTPMSKKVRISCNSHDKGIEVKNACSVGCLSCGLCVRNCPSEAITMVNNLPVIDYDKCTQCGVCVGKCPTKAIVNLNTNVSKEASNN", "notes": "native subunit of the purified Rnf complex; Carries five reliably identified [4Fe-4S] clusters; a sixth in FdI is held likely; also called ferredoxin subunit RnfB"}},
  "key": {"[1]": {"molecular_target": "T1, Rnf complex (RnfABCDEG), RnfD site (Clostridium tetanomorphum, UniProt A0A923IYK2)", "T1 construct": "native six-subunit membrane complex purified from C. tetanomorphum, in MSP1D1/DMPC nanodisc; RnfD 33 kDa; with Ion-translocating oxidoreductase complex subunit A; Ion-translocating oxidoreductase complex subunit B; Ion-translocating oxidoreductase complex subunit C; Ion-translocating oxidoreductase complex subunit E; Ion-translocating oxidoreductase complex subunit G", "T1 sequence (A0A923IZ11 1-435 partner, one chain of several)": "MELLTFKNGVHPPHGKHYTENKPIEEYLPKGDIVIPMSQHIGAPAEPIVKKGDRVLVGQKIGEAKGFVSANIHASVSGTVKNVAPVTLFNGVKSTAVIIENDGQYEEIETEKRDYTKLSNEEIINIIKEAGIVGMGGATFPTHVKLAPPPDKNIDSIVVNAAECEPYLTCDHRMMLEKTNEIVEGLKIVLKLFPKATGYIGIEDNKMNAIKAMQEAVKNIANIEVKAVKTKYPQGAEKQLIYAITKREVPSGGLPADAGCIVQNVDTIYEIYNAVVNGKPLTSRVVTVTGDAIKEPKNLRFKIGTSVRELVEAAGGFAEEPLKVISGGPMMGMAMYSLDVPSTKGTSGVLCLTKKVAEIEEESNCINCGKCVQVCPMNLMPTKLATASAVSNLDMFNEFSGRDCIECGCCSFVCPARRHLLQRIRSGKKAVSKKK", "T1 sequence (A0A923J0P9 1-191 partner, one chain of several)": "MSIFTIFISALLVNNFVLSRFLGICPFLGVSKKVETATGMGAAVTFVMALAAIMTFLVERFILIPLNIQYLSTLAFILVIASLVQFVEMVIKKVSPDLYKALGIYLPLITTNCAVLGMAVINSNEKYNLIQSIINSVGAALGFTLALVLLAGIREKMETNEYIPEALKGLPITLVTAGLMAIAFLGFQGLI", "T1 sequence (A0A923IZB8 1-202 partner, one chain of several)": "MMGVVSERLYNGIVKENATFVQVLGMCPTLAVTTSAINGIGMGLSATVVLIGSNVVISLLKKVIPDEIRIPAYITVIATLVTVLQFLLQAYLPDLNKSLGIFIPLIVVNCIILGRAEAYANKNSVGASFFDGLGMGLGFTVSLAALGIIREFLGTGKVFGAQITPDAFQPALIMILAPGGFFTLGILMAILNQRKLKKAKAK", "T1 sequence (A0A923J084 1-189 partner, one chain of several)": "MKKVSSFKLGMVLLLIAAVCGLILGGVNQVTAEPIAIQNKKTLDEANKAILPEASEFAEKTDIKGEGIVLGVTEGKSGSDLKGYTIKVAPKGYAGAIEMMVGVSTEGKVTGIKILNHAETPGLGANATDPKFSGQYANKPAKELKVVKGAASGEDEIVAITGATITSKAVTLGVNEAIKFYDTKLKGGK", "test": "cryo-EM structure ([…] Å)", "type": "binding"}, "[2]": {"molecular_target": "T2, Rnf complex (RnfABCDEG), RnfG site (Clostridium tetanomorphum, UniProt A0A923J084)", "T2 construct": "native six-subunit membrane complex purified from C. tetanomorphum, in MSP1D1/DMPC nanodisc; RnfG 20 kDa; with Ion-translocating oxidoreductase complex subunit A; Ion-translocating oxidoreductase complex subunit B; Ion-translocating oxidoreductase complex subunit C; Ion-translocating oxidoreductase complex subunit D; Ion-translocating oxidoreductase complex subunit E", "T2 sequence (A0A923J084 1-189, one chain of several)": "as the sequence (A0A923J084 1-189 partner, one chain of several) above", "T2 sequence (A0A923J0P9 1-191 partner, one chain of several)": "as the sequence (A0A923J0P9 1-191 partner, one chain of several) above", "T2 sequence (A0A923IZB8 1-202 partner, one chain of several)": "as the sequence (A0A923IZB8 1-202 partner, one chain of several) above", "T2 sequence (A0A923IZ11 1-435 partner, one chain of several)": "as the sequence (A0A923IZ11 1-435 partner, one chain of several) above", "test": "cryo-EM structure ([…] Å); UV fluorescence on SDS-PAGE", "type": "binding", "conditions": "covalent; phosphoester to Thr164 of RnfG"}, "[3]": {"molecular_target": "T3, Rnf complex (RnfABCDEG), RnfC site (Clostridium tetanomorphum, UniProt A0A923IZ11)", "T3 construct": "gene rsxC; native six-subunit membrane complex purified from C. tetanomorphum in DDM (MSP1D1/DMPC nanodisc for cryo-EM); RnfC 1-435, 47 kDa; complex ca. 200-250 kDa; with Ion-translocating oxidoreductase complex subunit A; Ion-translocating oxidoreductase complex subunit B; Ion-translocating oxidoreductase complex subunit D; Ion-translocating oxidoreductase complex subunit E; Ion-translocating oxidoreductase complex subunit G", "T3 sequence (A0A923IZ11 1-435, one chain of several)": "as the sequence (A0A923IZ11 1-435 partner, one chain of several) above", "T3 sequence (A0A923J0P9 1-191 partner, one chain of several)": "as the sequence (A0A923J0P9 1-191 partner, one chain of several) above", "T3 sequence (A0A923IZB8 1-202 partner, one chain of several)": "as the sequence (A0A923IZB8 1-202 partner, one chain of several) above", "T3 sequence (A0A923J084 1-189 partner, one chain of several)": "as the sequence (A0A923J084 1-189 partner, one chain of several) above", "test": "NADH oxidation, hexacyanoferrate(III) reduction at […] nm", "type": "biochemical", "conditions": "200 µM NADH, 100 µM hexacyanoferrate(III), 150 mM NaCl, 50 mM potassium phosphate pH 7.5, 0.05% DDM, room temperature, anaerobic"}, "[4]": {"molecular_target": "T3, Rnf complex (RnfABCDEG), RnfC site", "test": "coupled enzyme assay with Etf/butyryl-CoA dehydrogenase, […] nm", "type": "biochemical", "conditions": "reduced ferredoxin as electron donor (50 µM Fd), crotonyl-CoA, room temperature"}, "[5]": {"molecular_target": "T4, RnfD subunit of the Na+-translocating ferredoxin:NAD+ reductase (Rnf) complex of Clostridium tetanomorphum (Clostridium tetanomorphum (endogenous …, UniProt A0A923IYK2 1-310, FMN covalently attached by its phospho group to the Thr153 hydroxy group))", "T4 construct": "native subunit of the purified Rnf complex; Also holds a riboflavin", "T4 sequence (looked up)": "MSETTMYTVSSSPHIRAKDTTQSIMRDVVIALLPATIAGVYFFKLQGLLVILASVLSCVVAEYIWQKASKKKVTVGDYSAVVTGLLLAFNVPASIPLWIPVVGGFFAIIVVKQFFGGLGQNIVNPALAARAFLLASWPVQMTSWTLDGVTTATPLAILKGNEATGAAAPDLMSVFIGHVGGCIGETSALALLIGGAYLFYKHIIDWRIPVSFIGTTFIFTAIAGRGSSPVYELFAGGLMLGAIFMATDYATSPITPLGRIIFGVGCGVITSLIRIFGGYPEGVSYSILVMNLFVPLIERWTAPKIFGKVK", "test": "cryo-EM structure; native Rnf complex of C. tetanomorphum reconstituted into a DMPC-filled MSP1D1 nanodisc; grids prepared in an anaerobic tent (95% N2, 5% H2); 88,423 particles, overall resolution 4.27 Å", "conditions": "both partners purified"}},
  "data": [
    {"molecule": "Cc1cc2nc3c(=O)[nH]c(=O)nc-3n(C[C@H](O)[C@H](O)[C@H](O)CO)c2cc1C", "note": "[RBF, riboflavin]", "values": [
      {"measurement": "cryo-EM structure (4.27 Å)", "setting": "[1]; cytoplasmic half-channel pocket of RnfD near Asn124 and Asp248, density assigned with help of A. vinelandii Rnf structure", "value": "the density becomes interpretable as riboflavin"}
    ]},
    {"molecule": "Cc1cc2nc3c(=O)[nH]c(=O)nc-3n(C[C@H](O)[C@H](O)[C@H](O)COP(=O)(O)O)c2cc1C", "note": "[FMN]", "values": [
      {"measurement": "cryo-EM structure (4.27 Å)", "setting": "[1]; covalent, phosphoester to Thr153 of RnfD (covalent FMN seen in structure; RnfD band not detected by UV on SDS-PAGE)", "value": "The phospho group of FMNRnfD is covalently attached to the well-conserved Thr153 hydroxy group"},
      {"measurement": "cryo-EM structure (4.27 Å); UV fluorescence on SDS-PAGE", "setting": "[2]", "value": "FMN is covalently attached via its phospho group to the conserved Thr164"}
    ]},
    {"molecule": "NC(=O)C1=CN([C@@H]2O[C@H](COP(=O)(O)OP(=O)(O)OC[C@H]3O[C@@H](n4cnc5c(N)ncnc54)[C@H](O)[C@@H]3O)[C@@H](O)[C@H]2O)C=CC1", "note": "[NADH]", "values": [
      {"measurement": "NADH oxidation, hexacyanoferrate(III) reduction at 420 nm", "setting": "[3]", "value": "using hexacyanoferrate(III) as electron acceptor for NADH oxidation"}
    ]},
    {"molecule": "NC(=O)c1ccc[n+]([C@@H]2O[C@H](COP(=O)(O)OP(=O)(O)OC[C@H]3O[C@@H](n4cnc5c(N)ncnc54)[C@H](O)[C@@H]3O)[C@@H](O)[C@H]2O)c1", "note": "[NAD^+]", "values": [
      {"measurement": "coupled enzyme assay with Etf/butyryl-CoA dehydrogenase, 340 nm", "setting": "[4]", "value": "The biological relevant NAD^+ reduction with Fdred was determined with a coupled enzyme assay"}
    ]},
    {"molecule": "B1", "values": [
      {"measurement": "binding result", "setting": "[5]", "value": "binds"}
    ]}
  ]
}
